Reference: ChEMBL document CHEMBL3045487, “Bioactivity guided isolation of antiinflammatory, analgesic, and antipyretic constituents from the leaves of Pedilanthus tithymaloides (L.)” (Med Chem Res, 2013)

Tests used:
Mus musculus [1] = assay: Anti-inflammatory activity in Swiss albino Mus musculus (mouse) assessed as inhibition of carrageenan-induced paw edema at 10 mg/kg, ip administered 30 min prior to carrageenan-challenge measured after 3 to 4 hr relative to control; format: functional; details: route intraperitoneal
Mus musculus [2] = assay: Anti-inflammatory activity in Swiss albino Mus musculus (mouse) assessed as inhibition of cotton pellet-induced granuloma formation at 10 mg/kg, po administered QD for 5 days measured at 1 hr post-last dose relative to control; format: functional
Mus musculus [3] = assay: Toxicity in Swiss albino Mus musculus (mouse) assessed as mortality up to 100 mg/kg, po measured up to 72 hr; format: organism-based; design: dose 100 mg/kg, route oral; details: in vivo
Mus musculus [4] = assay: Toxicity in Swiss albino Mus musculus (mouse) assessed as presence of secretions up to 100 mg/kg, po measured up to 24 hr relative to control; format: organism-based; design: dose 100 mg/kg, route oral; details: in vivo
Mus musculus [5] = assay: Toxicity in Swiss albino Mus musculus (mouse) assessed as diarrhea up to 100 mg/kg, po measured up to 24 hr relative to control; format: organism-based; design: dose 100 mg/kg, route oral; details: in vivo
Mus musculus [6] = assay: Toxicity in Swiss albino Mus musculus (mouse) assessed as convulsions up to 100 mg/kg, po measured up to 24 hr relative to control; format: organism-based; design: dose 100 mg/kg, route oral; details: in vivo
Mus musculus [7] = assay: Toxicity in Swiss albino Mus musculus (mouse) assessed as tremors up to 100 mg/kg, po measured up to 24 hr relative to control; format: organism-based; design: dose 100 mg/kg, route oral; details: in vivo
Mus musculus [8] = assay: Toxicity in Swiss albino Mus musculus (mouse) assessed as ataxia up to 100 mg/kg, po measured up to 24 hr relative to control; format: organism-based; design: dose 100 mg/kg, route oral; details: in vivo
Mus musculus [9] = assay: Toxicity in Swiss albino Mus musculus (mouse) assessed as lethargy up to 100 mg/kg, po measured up to 24 hr relative to control; format: organism-based; design: dose 100 mg/kg, route oral; details: in vivo
Mus musculus [10] = assay: Toxicity in Swiss albino Mus musculus (mouse) assessed as effect on mobility up to 100 mg/kg, po measured up to 24 hr relative to control; format: organism-based; design: dose 100 mg/kg, route oral; details: in vivo
Mus musculus [11] = assay: Toxicity in Swiss albino Mus musculus (mouse) assessed as abdominal constriction up to 100 mg/kg, po measured up to 24 hr relative to control; format: organism-based, Abdomen; design: dose 100 mg/kg, route oral; details: in vivo
Mus musculus [12] = assay: Toxicity in Swiss albino Mus musculus (mouse) assessed as weight loss up to 100 mg/kg, po measured up to 24 hr relative to control; format: organism-based; design: dose 100 mg/kg, route oral; details: in vivo
Mus musculus [13] = assay: Antinociceptive activity Swiss albino Mus musculus (mouse) assessed as inhibition of formalin-induced paw licking at 10 mg/kg, po administered 60 min prior to formalin-challenge measured from 15 to 30 min relative to control; format: functional
Mus musculus [14] = assay: Antinociceptive activity Swiss albino Mus musculus (mouse) assessed as inhibition of formalin-induced paw licking at 10 mg/kg, po administered 60 min prior to formalin-challenge measured up to 5 min relative to control; format: functional
Mus musculus [15] = assay: Antinociceptive activity in Swiss albino Mus musculus (mouse) assessed as inhibition of acetic acid-induced writhing at 10 mg/kg, po administered 1 hr prior to acetic acid-challenge measured up to 20 min relative to control; format: functional
Mus musculus [16] = assay: Anti-inflammatory activity in Swiss albino Mus musculus (mouse) assessed as inhibition of carrageenan-induced paw edema at 10 mg/kg, ip administered 30 min prior to carrageenan-challenge measured after 5 hr relative to control; format: functional; details: route intraperitoneal
Rattus norvegicus [17] = assay: Antipyretic activity in Wistar albino Rattus norvegicus (rat) assessed as brewer's yeast-induced rectal tempeRattus norvegicus (rat)ure at 150 mg/kg, po measured at 23 hr (reference value: 39.1+/- 0.18 degC); format: functional
Rattus norvegicus [18] = assay: Antipyretic activity in Wistar albino Rattus norvegicus (rat) assessed as brewer's yeast-induced rectal tempeRattus norvegicus (rat)ure at 150 mg/kg, po measured at 22 hr (reference value: 39.1+/- 0.18 degC); format: functional
Rattus norvegicus [19] = assay: Antipyretic activity in Wistar albino Rattus norvegicus (rat) assessed as brewer's yeast-induced rectal tempeRattus norvegicus (rat)ure at 150 mg/kg, po measured at 21 hr (reference value: 39.1+/- 0.18 degC); format: functional
Rattus norvegicus [20] = assay: Antipyretic activity in Wistar albino Rattus norvegicus (rat) assessed as brewer's yeast-induced rectal tempeRattus norvegicus (rat)ure at 150 mg/kg, po measured at 20 hr (reference value: 39.1+/- 0.18 degC); format: functional
Rattus norvegicus [21] = assay: Antipyretic activity in Wistar albino Rattus norvegicus (rat) assessed as brewer's yeast-induced rectal tempeRattus norvegicus (rat)ure at 150 mg/kg, po measured at 19 hr (reference value: 39.3 +/- 0.11 degC); format: functional
Mus musculus [22] = assay: Antinociceptive activity Swiss albino Mus musculus (mouse) assessed as inhibition of formalin-induced paw licking at 10 mg/kg, po administered 30 min prior to formalin-challenge measured from 15 to 30 min relative to control; format: functional
Mus musculus [23] = assay: Antinociceptive activity Swiss albino Mus musculus (mouse) assessed as inhibition of formalin-induced paw licking at 10 mg/kg, po administered 30 min prior to formalin-challenge measured up to 5 min relative to control; format: functional
Rattus norvegicus [24] = assay: Antipyretic activity in Wistar albino Rattus norvegicus (rat) assessed as brewer's yeast-induced rectal temperature at 10 mg/kg, po measured at 22 hr (reference value: 39.1+/- 0.18 degC); format: functional
Rattus norvegicus [25] = assay: Antipyretic activity in Wistar albino Rattus norvegicus (rat) assessed as brewer's yeast-induced rectal tempeRattus norvegicus (rat)ure at 10 mg/kg, po measured at 21 hr (reference value: 39.1+/- 0.18 degC); format: functional
Rattus norvegicus [26] = assay: Antipyretic activity in Wistar albino Rattus norvegicus (rat) assessed as brewer's yeast-induced rectal tempeRattus norvegicus (rat)ure at 10 mg/kg, po measured at 20 hr (reference value: 39.1+/- 0.18 degC); format: functional
Rattus norvegicus [27] = assay: Antipyretic activity in Wistar albino Rattus norvegicus (rat) assessed as brewer's yeast-induced rectal tempeRattus norvegicus (rat)ure at 10 mg/kg, po measured at 19 hr (reference value: 39.3 +/- 0.11 degC); format: functional
Rattus norvegicus [28] = assay: Antipyretic activity in Wistar albino Rattus norvegicus (rat) assessed as brewer's yeast-induced rectal tempeRattus norvegicus (rat)ure at 10 mg/kg, po measured at 23 hr (reference value: 39.1+/- 0.18 degC); format: functional
Mus musculus [29] = species: Mus musculus; assay: animal or person; details: Swiss albino, po, read-out: INH
Description: Antinociceptive activity Swiss albino Mus musculus (mouse) assessed as inhibition of formalin-induced paw licking at 5 mg/kg, po administered 30 min prior to formalin-challenge measured from 15 to 30 min relative to control

Mus musculus [30] = species: Mus musculus; assay: animal or person; details: Swiss albino, po, read-out: INH; remark: listed apart in the source
Description: Antinociceptive activity Swiss albino Mus musculus (mouse) assessed as inhibition of formalin-induced paw licking at 5 mg/kg, po administered 30 min prior to formalin-challenge measured up to 5 min relative to control

| Compound | inhibition in vivo at 10 mg/kg (Mus musculus [1]) [%] | inhibition in vivo at 10 mg/kg (Mus musculus [2]) [%] | Activity (Mus musculus [3]) | Activity (Mus musculus [4]) | Activity (Mus musculus [5]) | Activity (Mus musculus [6]) | Activity (Mus musculus [7]) | Activity (Mus musculus [8]) | Activity (Mus musculus [9]) | Activity (Mus musculus [10]) | Activity (Mus musculus [11]) | Activity (Mus musculus [12]) | inhibition in vivo at 10 mg/kg (Mus musculus [13]) [%] | inhibition in vivo at 10 mg/kg (Mus musculus [14]) [%] | inhibition in vivo at 10 mg/kg (Mus musculus [15]) [%] | further results |
| --- | --- | --- | --- | --- | --- | --- | --- | --- | --- | --- | --- | --- | --- | --- | --- | --- |
| CC(=O)O[C@H]1CC[C@@H]2[C@](C)(CC[C@H]3[C@@]2(C)CC[C@@]2(C)[C@H]4CC(C)(C)CC[C@]4(C)CC[C@]32C)[C@H]1C [EPIFRIEDELANYL ACETATE] | 30.6 | 24.9 | Non-toxic | Non-toxic | Non-toxic | Non-toxic | Non-toxic | Non-toxic | Non-toxic | Non-toxic | Non-toxic | Non-toxic |  |  |  |  |
| CCCCCCCCCCCCC(O)COS(=O)(=O)[O-].[Na+] (stereo unspecified) | 33.3 | 12.9 | Non-toxic | Non-toxic | Non-toxic | Non-toxic | Non-toxic | Non-toxic | Non-toxic | Non-toxic | Non-toxic | Non-toxic |  |  |  |  |
| C[C@H]1[C@H](O)CC[C@@H]2[C@]1(C)CC[C@H]1[C@@]2(C)CC[C@@]2(C)[C@H]3CC(C)(C)CC[C@]3(C)CC[C@]12C [FRIEDELANOL] | 36.1 | 29.2 | Non-toxic | Non-toxic | Non-toxic | Non-toxic | Non-toxic | Non-toxic | Non-toxic | Non-toxic | Non-toxic | Non-toxic | 42.9 | 35.7 | 45.8 |  |
| O=c1cc(-c2ccc(O)c(O)c2)oc2cc(O)cc(O)c12 [LUTEOLIN] |  | 37 | Non-toxic | Non-toxic | Non-toxic | Non-toxic | Non-toxic | Non-toxic | Non-toxic | Non-toxic | Non-toxic | Non-toxic | 48.6 | 40.3 | 55.4 | inhibition in vivo at 10 mg/kg (Mus musculus [16]): 50% |
| CC(=O)Nc1ccc(O)cc1 [ACETAMINOPHEN] |  |  |  |  |  |  |  |  |  |  |  |  |  |  |  | T (Rattus norvegicus [17]): 37.7 °C; T (Rattus norvegicus [18]): 37.9 °C; T (Rattus norvegicus [19]): 38 °C; T (Rattus norvegicus [20]): 38 °C; T (Rattus norvegicus [21]): 39.6 °C |
| O=C(O)Cc1ccccc1Nc1c(Cl)cccc1Cl [DICLOFENAC SODIUM] |  |  |  |  |  |  |  |  |  |  |  |  |  |  | 90.9 | inhibition in vivo at 10 mg/kg (Mus musculus [22]): 97.6%; inhibition in vivo at 10 mg/kg (Mus musculus [23]): 20.1% |
| C[C@H]1[C@H](C)CC[C@]2(C(=O)O)CC[C@]3(C)C(=CC[C@@H]4[C@@]5(C)CC[C@H](O)C(C)(C)[C@@H]5CC[C@]43C)[C@H]12 [URSOLIC ACID] |  | 38.5 | Non-toxic | Non-toxic | Non-toxic | Non-toxic | Non-toxic | Non-toxic | Non-toxic | Non-toxic | Non-toxic | Non-toxic | 61.4 | 43.6 | 50.3 |  |
| CC[C@H](CC[C@@H](C)[C@H]1CC[C@H]2[C@@H]3CC=C4C[C@@H](O)CC[C@]4(C)[C@H]3CC[C@]12C)C(C)C [BETA-SITOSTEROL] |  | 30.4 | Non-toxic | Non-toxic | Non-toxic | Non-toxic | Non-toxic | Non-toxic | Non-toxic | Non-toxic | Non-toxic | Non-toxic |  |  |  | T (Rattus norvegicus [24]): 38 °C; T (Rattus norvegicus [25]): 38.1 °C; T (Rattus norvegicus [26]): 38.1 °C; T (Rattus norvegicus [27]): 39.6 °C; T (Rattus norvegicus [28]): 37.9 °C |
| CN1CC[C@]23c4c5ccc(O)c4O[C@H]2[C@@H](O)C=C[C@H]3[C@H]1C5 [MORPHINE] |  |  |  |  |  |  |  |  |  |  |  |  |  |  |  | inhibition in vivo at 5 mg/kg (Mus musculus [29]): 100%; inhibition in vivo at 5 mg/kg (Mus musculus [30]): 68% |
| COc1ccc2c(c1)c(CC(=O)O)c(C)n2C(=O)c1ccc(Cl)cc1 [INDOMETHACIN] |  | 45.5 |  |  |  |  |  |  |  |  |  |  |  |  |  | inhibition in vivo at 10 mg/kg (Mus musculus [16]): 61.1% |
